From patent US5157051A, “Composition and use of 3-thiocyano-2-halo-2-propenenitriles as antimicrobial agents” (The Dow Chemical Company, priority 1992, dated 1992)
Read-outs that look alike come from different tables or passages of the source.

What was measured:
[1] = system: Pseudomonas aeruginosa (PRD-10); assay: MIC, Pseudomonas aeruginosa (PRD-10), nutrient agar; assay type: cell-based, Pseudomonas aeruginosa ATCC 15442; details: 30° C., 48 hours, read-out: Minimum Inhibitory Concentration, PRD
Procedure: (§1) The minimum inhibitory concentration (MIC) for the compounds is determined for 9 bacteria, using nutrient agar, and 7 yeast and fungi, using malt yeast agar. A one percent solution of the test compound is prepared in a mixture of acetone and water. Nutrient agar is prepared at pH 6.8, representing a neutral medium, and at pH 8.2, representing an alkaline medium. The nutrient agars are prepared by adding 23 g of nutrient agar to one-liter of deionized water. In addition, the alkaline medium is prepared by adjusting a 0.04M solution of N-[tris-(hydroxymethyl)methyl]-glycine buffered deionized water with concentrated sodium hydroxide to a pH of […]. Malt yeast agar is prepared by adding 3 g yeast extract and 45 g malt agar per liter of dionized water. The specific agar is dispensed in 30 ml aliquots into 25×200 mm test tubes, capped and autoclaved for 15 minutes at 115° C. The test tubes containing the agar are cooled in a water bath until the temperature of the agar is 48 ° C. […]
(§2) The inoculated petri plates are incubated at 30° C. for 48 hours and then read to determine if the test compound which is incorporated into the agar prevented growth of the respective bacteria. […]

Klebsiella pneumoniae = assay: MIC, Klebsiella pneumoniae (Kp), nutrient agar; assay type: cell-based, Klebsiella pneumoniae ATCC 8308; details: 30° C., 48 hours, read-out: Minimum Inhibitory Concentration, Kp
Procedure: as §1, §2

Aureobasidium pullulan = assay: MIC, Aureobasidium pullulan (Ap), malt yeast agar; assay type: cell-based, Aureobasidium pullulan ATCC 16622; details: 30° C., read after 48 hours for yeast and 72 hours for fungi, read-out: Minimum Inhibitory Concentration, Ap
Procedure: as §1
(§3) The inoculation with the yeast and fungi is accomplished as follows. […] The petri plates are incubated at 30° C. and read after 48 hours for yeast and 72 hours for fungi. […]

Trichoderma viride = assay: MIC, Trichoderma viride (Tv), malt yeast agar; assay type: cell-based, Trichoderma viride ATCC 8678; details: 30° C., 72 hours (fungi), read-out: Minimum Inhibitory Concentration, Tv
Procedure: as §1, §3

Candida albicans = assay: MIC, Candida albicans (Ca), malt yeast agar; assay type: cell-based, Candida albicans ATCC 10231; details: 30° C., 48 hours (yeast), read-out: Minimum Inhibitory Concentration, Ca
Procedure: as §1, §3

Pseudomonas aeruginosa = assay: MIC, Pseudomonas aeruginosa (Pa), nutrient agar; assay type: cell-based, Pseudomonas aeruginosa ATCC 10145; details: 30° C., 48 hours, read-out: Minimum Inhibitory Concentration, Pa
Procedure: as §1, §2

Aspergillus niger = assay: MIC, Aspergillus niger (An), malt yeast agar; assay type: cell-based, Aspergillus niger ATCC 16404; details: 30° C., 72 hours (fungi), read-out: Minimum Inhibitory Concentration, An
Procedure: as §1, §3

Enterobacter aerogenes = assay: MIC, Enterobacter aerogenes (Ea), nutrient agar; assay type: cell-based, Enterobacter aerogenes ATCC 13048; details: Klebsiella aerogenes, 30° C., 48 hours, read-out: Minimum Inhibitory Concentration, Ea
Procedure: as §1, §2

Saccharomyces cerevisiae = assay: MIC, Saccharomyces cerevisiae (Sc), malt yeast agar; assay type: cell-based, Saccharomyces cerevisiae ATCC 4105; details: 30° C., 48 hours (yeast), read-out: Minimum Inhibitory Concentration, Sc
Procedure: as §1, §3

Salmonella choleraesuis = assay: MIC, Salmonella choleraesuis (Sc), nutrient agar; assay type: cell-based, Salmonella choleraesuis ATCC 10708; details: Salmonella enterica, 30° C., 48 hours, read-out: Minimum Inhibitory Concentration, Sc
Procedure: as §1, §2

Penicillium chrysogenum = assay: MIC, Penicillium chrysogenum (Pc), malt yeast agar; assay type: cell-based, Penicillium chrysogenum ATCC 9480; details: 30° C., 72 hours (fungi), read-out: Minimum Inhibitory Concentration, Pc
Procedure: as §1, §3

Fusarium oxysporum = assay: MIC, Fusarium oxysporum (Fo), malt yeast agar; assay type: cell-based, Fusarium oxysporum ATCC 48112; details: 30° C., 72 hours (fungi), read-out: Minimum Inhibitory Concentration, Fo
Procedure: as §1, §3

Escherichia coli = assay: MIC, Escherichia coli (Ec), nutrient agar; assay type: cell-based, Escherichia coli ATCC 11229; details: 30° C., 48 hours, read-out: Minimum Inhibitory Concentration, Ec
Procedure: as §1, §2

Staphylococcus aureus = assay: MIC, Staphylococcus aureus (Sa), nutrient agar; assay type: cell-based, Staphylococcus aureus ATCC 6538; details: 30° C., 48 hours, read-out: Minimum Inhibitory Concentration, Sa
Procedure: as §1, §2

Bacillus subtilis = assay: MIC, Bacillus subtilis (Bs), nutrient agar; assay type: cell-based, Bacillus subtilis ATCC 8473; details: 30° C., 48 hours, read-out: Minimum Inhibitory Concentration, Bs
Procedure: as §1, §2

Proteus vulgaris = assay: MIC, Proteus vulgaris (Pv), nutrient agar; assay type: cell-based, Proteus vulgaris ATCC 881; details: 30° C., 48 hours, read-out: Minimum Inhibitory Concentration, Pv
Procedure: as §1, §2

Measured: MIC

N#CSC=C(Cl)C#N [3-Thiocyano-2-chloro-2-propenenitrile, 3-Thiocyano-2-Chloro-2-Propenenitrile]
5 µg/mL: Trichoderma viride
> 500 µg/mL: [1]; pH 8.2, nutrient agar | Enterobacter aerogenes; pH 8.2, nutrient agar | Salmonella choleraesuis; pH 8.2, nutrient agar | Escherichia coli; pH 8.2, nutrient agar | Proteus vulgaris; pH 8.2, nutrient agar
500 µg/mL: Klebsiella pneumoniae; pH 8.2, nutrient agar | Pseudomonas aeruginosa; pH 8.2, nutrient agar | Staphylococcus aureus; pH 8.2, nutrient agar | Bacillus subtilis; pH 8.2, nutrient agar
100 µg/mL: Klebsiella pneumoniae; pH 6.8, nutrient agar | Salmonella choleraesuis; pH 6.8, nutrient agar | Escherichia coli; pH 6.8, nutrient agar
50 µg/mL: Staphylococcus aureus; pH 6.8, nutrient agar | Proteus vulgaris; pH 6.8, nutrient agar
25 µg/mL: Bacillus subtilis; pH 6.8, nutrient agar
2.5 µg/mL: Aureobasidium pullulan | Candida albicans | Aspergillus niger | Saccharomyces cerevisiae | Penicillium chrysogenum | Fusarium oxysporum
250 µg/mL: [1]; pH 6.8, nutrient agar | Pseudomonas aeruginosa; pH 6.8, nutrient agar | Enterobacter aerogenes; pH 6.8, nutrient agar
